{
  "source": "patent US20240398745A1",
  "about": "“COMPOSITION AND METHODS OF TREATMENT USING […] - ENHANCED SUPPLEMENTATION” (Xygenyx Inc., priority 2023, published 2024)",
  "origin": "cited, not measured here",
  "key": {"[1]": {"system": "wide dynamic range neurons in the ventroposterolateral nucleus of the thalamus", "settings": "believed"}, "[2]": {"settings": "in vivo"}, "skin [3]": {"system": "skin", "settings": "topical, concentrations 0.5-5%"}, "skin [4]": {"system": "skin", "settings": "topical formulations, within four weeks of treatment"}, "[5]": {"settings": "α-tocopherol taken as 1.0"}, "[6]": {"settings": "even when dietary intake occurs in equal portions"}, "[7]": {"settings": "in vivo", "remark": "listed apart in the source"}},
  "note": "Square brackets hold non-standard residues; d marks the D form. Peptide text beside a SMILES is read from it. Cit = NC(=O)NCCC[C@H](N)C(=O)O",
  "data": [
    {"molecule": "CCCCCc1cc(O)c2c(c1)OC(C)(C)C1CCC(C)=CC21", "note": "(stereo not drawn) [THC, Δ-9-tetrahydrocannabinol]", "values": [
      {"measurement": "power in mediating pain relative to morphine", "setting": "[1]", "value": "ten times more powerful than morphine"}
    ]},
    {"molecule": "CCNC(=O)CC[C@H](N)C(=O)O", "note": "[Theanine]", "values": [
      {"measurement": "dose generally considered safe and well-tolerated", "setting": "[2]", "value": "up to 400 mg per day"}
    ]},
    {"molecule": "C=CCCCCCCCCC(=O)N[C@@H](Cc1ccccc1)C(=O)O", "note": "[UP, Undecylenoyl phenylalanine]", "values": [
      {"measurement": "time of treatment to skin lightening effects", "setting": "skin [3]", "value": "≥ 7", "unit": "days"}
    ]},
    {"molecule": "CC[C@H](C)[C@H](NC(=O)[C@H](CC(=O)O)NC(=O)[C@@H](N)CCCCN)C(=O)N[C@@H](CCCNC(N)=O)C(N)=O", "note": "[tripeptide-10 citrulline, Tripeptide-10 citrulline] (H-KDI[Cit]-NH2)", "values": [
      {"measurement": "improvement of suppleness", "setting": "skin [4]", "value": "≤ 54", "unit": "%"}
    ]},
    {"molecule": "Cc1c(C)c2c(c(C)c1O)CC[C@@](C)(CCC[C@H](C)CCC[C@H](C)CCCC(C)C)O2", "note": "[α-tocopherol]", "values": [
      {"measurement": "reduction of risk of coronary disease", "setting": "dietary supplementation, doses up to 400 IU/day", "value": "up to 34%"},
      {"measurement": "reduction of risk of developing neurodegenerative diseases such as Alzheimer's Syndrome or dementia", "setting": "dietary supplementation, doses up to 400 IU/day, controlled trials", "value": "≤ 24", "unit": "%"},
      {"measurement": "reduction in the development of age-related cataracts", "setting": "in combination with 10-20 mg β-carotene and 400-500 mg vitamin C, doses around 400-500 IU", "value": 23, "unit": "%"}
    ]},
    {"molecule": "Cc1cc(O)c(C)c2c1O[C@](C)(CCC[C@H](C)CCC[C@H](C)CCCC(C)C)CC2", "note": "[β-tocopherol]", "values": [
      {"measurement": "relative biological activity", "setting": "[5]", "value": 0.5}
    ]},
    {"molecule": "Cc1c(O)cc2c(c1C)O[C@](C)(CCC[C@H](C)CCC[C@H](C)CCCC(C)C)CC2", "note": "[γ-tocopherol]", "values": [
      {"measurement": "relative biological activity", "setting": "[5]", "value": 0.1},
      {"measurement": "concentration in vivo relative to α-tocopherol", "setting": "[6]", "value": "roughly 10%"}
    ]},
    {"molecule": "Cc1cc(O)cc2c1O[C@](C)(CCC[C@H](C)CCC[C@H](C)CCCC(C)C)CC2", "note": "[δ-tocopherol]", "values": [
      {"measurement": "relative biological activity", "setting": "[5]", "value": 0.03}
    ]},
    {"molecule": "HGH: hormone comprising a peptide chain that is synthesized in the pituitary gland", "values": [
      {"measurement": "biological half-life", "setting": "[7]", "value": "10-20 minutes"}
    ]}
  ]
}
